Measured values reported in patent US20070244165A1, “Method for Identifying and Producing Effectors of Calmodulin-Dependent Peptidyl-Prolyl Cis/Trans Isomers” (MAX-PLANK-GESELLSCHAFT ZUR FORDERUNG, priority 2004, published 2007).

Target: T1, human CaMAP FKBP38 (Homo sapiens, UniProt Q14318)
T1 construct: made in house; host or cells: E. coli Rosetta cells (pET28a)
Assay: Inhibition of PPIase activity of calmodulin-activated CaMAP FKBP38 (isomer-specific proteolysis with chymotrypsin)
Type: biochemical
Conditions: 0.5 μM FKBP38, 0.5 μM calmodulin, 5 mM calcium chloride; substrate Suc-Ala-Phe-Pro-Phe-NHNp; read-out: IC50 value (inhibitor concentration against detected enzyme activity)
Description: The human CaMAP FKBP38 (synonyms: FKBP8_HUMAN; Swiss-Prot-No.: Q14318) was produced molecular-biologically, as described in Example 9, and stored in aliquots of 100 μl with a protein concentration of 0.83 mg/ml at −80° C. Just before measuring the activity, one of these aliquots was thawed and subsequently stored at 4° C. Furthermore, commercially available calmodulin isolated from bovine brain (Sigma; purchase order no.: P2277), which had been stored at −80° C., was thawed just before measuring the activity and stored at 4° C. Suc-Ala-Phe-Pro-Phe-pNA (Bachem; purchase order no.: L-1400) was used as CaMAP substrate. Alpha-chymotrypsin isolated from bovine pancreas (Merck KG; purchase order no.: 102307) was used as isomer specific auxiliary enzyme. The following working solutions were prepared just before measuring and stored at 4° C.: • solution A: 55 mM HEPES buffer, pH 7.8; 1 mM DTT, 0.5% glycerol • solution B: 20 mg of the peptide substrate dissolved in 1 ml DMSO • solution C: 20 mg chymotrypsin dissolved in 200 μl of solution A • solution D: FKBP38 ([…], diluted in solution A) • solution E: calmodulin (300 μM, diluted in solution A) • solution F: calcium chloride (1 M in solution A)
For the kinetic determination of CaMAP activity, a computer assisted diode-array spectrometer (Hewlett Packard) with a cuvette temperature of 4° C. is used. […]

IC50: ~4.3 µM
Compound: C=CC[C@@H]1/C=C(\C)C[C@H](C)C[C@H](OC)[C@H]2O[C@@](O)(C(=O)C(=O)N3CCCC[C@H]3C(=O)O[C@H](/C(C)=C/[C@@H]3CC[C@@H](O)[C@H](OC)C3)[C@H](C)[C@@H](O)CC1=O)[C@H](C)C[C@@H]2OC [FK506]
